We go through 11 molecules from ChEMBL document CHEMBL4340505, “000Synthesis of new α-aminophosphonates: Evaluation as anti-inflammatory agents and QSAR studies” (2019).

Assay [1] concerns Mus musculus. Description: Antiinflammatory activity in ICR mouse assessed as inhibition of TPA-induced ear edema by measuring reduction in weight of ear punches applied topically measured 4 hrs post TPA-challenge. The format is functional.
Assay [2] concerns Mus musculus. Description: Potency index, ratio of indomethacin ED50 to test compound ED50 for antiinflammatory activity in ICR mouse assessed as inhibition of TPA-induced ear edema by measuring reduction in weight of ear punches applied topically. The format is functional.
In assay [3] the test system is Mus musculus. Description: Antiinflammatory activity in ICR mouse assessed as inhibition of TPA-induced ear edema by measuring reduction in weight of ear punches applied topically measured 4 hrs post TPA-challenge relative to control. The format is functional.
The subject of assay [4] is Mus musculus. Description: Antiinflammatory activity in TPA-induced ICR mouse ear edema model assessed as reduction in monocytes content AUC at 5.7 mg/ear applied topically measured 4 hrs post TPA-challenge giemsa staining-based microscopic method. More on the design: scale not given: the % may be the effect or the level left. The assay is classed as functional.
For assay [5], the system named is Mus musculus. Put plainly: Antiinflammatory activity in TPA-induced ICR mouse ear edema model assessed as reduction in monocyte content at 5.7 mg/ear applied topically by giemsa staining-based microscopic method. The assay is classed as functional, organism-based. To be noted: TDE = time-dependent effect.
Assay [6] has as its system Mus musculus. Put plainly: Antiinflammatory activity in TPA-induced ICR mouse ear edema model assessed as reduction in number of neutrophils at 5.7 mg/ear applied topically measured 4 hrs post-TPA challenge by giemsa staining-based microscopic method. The format is functional, organism-based.
The subject of assay [7] is Mus musculus. Put plainly: Antiinflammatory activity in TPA-induced ICR mouse ear edema model assessed as reduction in neutrophil content at 5.7 mg/ear applied topically by giemsa staining-based microscopic method. The assay is classed as functional, organism-based. To be noted: TDE = time-dependent effect.
Assay [8] concerns Mus musculus. Description: Antiinflammatory activity in TPA-induced ICR mouse ear edema model assessed as reduction in neutrophil content AUC at 5.7 mg/ear applied topically measured 4 hrs post-TPA challenge by giemsa staining-based microscopic method relative to control. The assay is classed as functional. More on the design: scale not given: the % may be the effect or the level left.

The test system of assay [9] is Mus musculus. Put plainly: Antiinflammatory activity in TPA-induced ICR mouse ear edema model assessed as reduction in neutrophil content AUC at 3 mg/ear applied topically measured 4 hrs post-TPA challenge by giemsa staining-based microscopic method relative to control. The assay is classed as functional. Details: scale not given: the % may be the effect or the level left.

The subject of assay [10] is Mus musculus. Put plainly: Antiinflammatory activity in TPA-induced ICR mouse ear edema model assessed as reduction in number of neutrophils at 3 mg/ear applied topically measured 4 hrs post-TPA challenge by giemsa staining-based microscopic method. The format is functional, organism-based.
Assay [11] deals with Mus musculus. Description: Antiinflammatory activity in TPA-induced ICR mouse ear edema model assessed as reduction in monocyte content at 3 mg/ear applied topically by giemsa staining-based microscopic method. The format is functional, organism-based. The following applies: TDE = time-dependent effect.
Assay [12] deals with Mus musculus. Description: Antiinflammatory activity in TPA-induced ICR mouse ear edema model assessed as reduction in monocytes content AUC at 3 mg/ear applied topically measured 4 hrs post TPA-challenge giemsa staining-based microscopic method. Details: scale not given: the % may be the effect or the level left. The format is functional.
For assay [13], the system named is Mus musculus. Put plainly: Antiinflammatory activity in TPA-induced ICR mouse ear edema model assessed as reduction in neutrophil content at 3 mg/ear applied topically by giemsa staining-based microscopic method. The assay is classed as functional, organism-based. The following applies: TDE = time-dependent effect.
Assay [14] relates to Mus musculus. Description: Antiinflammatory activity in TPA-induced ICR mouse ear edema model assessed as reduction in number of neutrophils at 1 mg/ear applied topically measured 4 hrs post-TPA challenge by giemsa staining-based microscopic method. The assay is classed as functional, organism-based.
Assay [15] concerns Mus musculus. Put plainly: Antiinflammatory activity in TPA-induced ICR mouse ear edema model assessed as reduction in neutrophil content AUC at 1 mg/ear applied topically measured 4 hrs post-TPA challenge by giemsa staining-based microscopic method relative to control. Details: scale not given: the % may be the effect or the level left. The format is functional.
The test system of assay [16] is Mus musculus. Put plainly: Antiinflammatory activity in TPA-induced ICR mouse ear edema model assessed as reduction in monocytes content AUC at 1 mg/ear applied topically measured 4 hrs post TPA-challenge giemsa staining-based microscopic method. The assay is classed as functional. More on the design: scale not given: the % may be the effect or the level left.
Assay [17] relates to Mus musculus. Description: Antiinflammatory activity in ICR mouse assessed as inhibition of TPA-induced ear edema by measuring reduction in weight of ear punches up to 1.25 mg/ear applied topically measured 4 hrs post TPA-challenge relative to control. The format is functional.
In assay [18] the test system is Mus musculus. Description: Antiinflammatory activity in TPA-induced ICR mouse ear edema model assessed as reduction in monocytes content AUC at 10 mg/ear applied topically measured 4 hrs post TPA-challenge giemsa staining-based microscopic method. The assay is classed as functional. More on the design: scale not given: the % may be the effect or the level left.
For assay [19], the system named is Mus musculus. Description: Antiinflammatory activity in TPA-induced ICR mouse ear edema model assessed as reduction in monocyte content at 10 mg/ear applied topically by giemsa staining-based microscopic method. The format is functional, organism-based. To be noted: TDE = time-dependent effect.
The test system of assay [20] is Mus musculus. Description: Antiinflammatory activity in TPA-induced ICR mouse ear edema model assessed as reduction in neutrophil content AUC at 10 mg/ear applied topically measured 4 hrs post-TPA challenge by giemsa staining-based microscopic method relative to control. The assay is classed as functional. More on the design: scale not given: the % may be the effect or the level left.

Assay [21] relates to Mus musculus. Put plainly: Antiinflammatory activity in TPA-induced ICR mouse ear edema model assessed as reduction in number of neutrophils at 10 mg/ear applied topically measured 4 hrs post-TPA challenge by giemsa staining-based microscopic method. The format is functional, organism-based.
In assay [22] the test system is Mus musculus. Description: Antiinflammatory activity in TPA-induced ICR mouse ear edema model assessed as reduction in neutrophil content at 10 mg/ear applied topically by giemsa staining-based microscopic method. The assay is classed as functional, organism-based. To be noted: TDE = time-dependent effect.

Each structure is given as a SMILES string. Activity calls are given as the source filed them. The rule behind the calls is not given here.

On to `COP(=O)(OC)C(C)(CO)N[C@@H](C)c1ccccc1` (mixture of isomers), for which, in the assay with Mus musculus [1], the ED50 was in the range of 0.95 to 1.05 mg and the inhibition result is “Dose-dependent effect”. Also, the “Ratio ED50” value with Mus musculus [2] is 0.46. In the assay with Mus musculus [3], the “%max” value is reported as 95.6%.
Regarding `COP(=O)(OC)C(C)(COC(C)=O)N[C@@H](C)c1ccccc1` (mixture of isomers), the ED50 with Mus musculus [1] lay within 0.73 to 1.37 mg. In the assay with Mus musculus [1], the inhibition entry was “Dose-dependent effect”. Also, the Activity is 18.9 - 34.1% with Mus musculus [4], “Tde” in the assay on Mus musculus [5], “Tde” in the assay with Mus musculus [7] and 46.7% in the assay with Mus musculus [8]. The result in the assay on Mus musculus [6] was Active. Moreover, the “Ratio ED50” value in the assay with Mus musculus [2] was 0.67. In addition, the “%max” value in the assay on Mus musculus [3] was found to be 96.1%.
Turning to `COP(=O)(OC)C(C)(COC(C)=O)NCC1CCCCC1` (racemic), the Activity is 62.9% in the assay on Mus musculus [9], “Tde” in the assay with Mus musculus [11], 18.9 - 34.1% in the assay on Mus musculus [12] and “Tde” in the assay with Mus musculus [13]. For the same molecule, in the assay with Mus musculus [1], the ED50 fell in the range of 0.95 to 1.05 mg. In addition, in the assay on Mus musculus [1], the inhibition entry was “Dose-dependent effect”. Also, the result in the assay on Mus musculus [10] was Active. Further, the “Ratio ED50” value in the assay on Mus musculus [2] is reported as 0.5. For the same molecule, in the assay on Mus musculus [3], the “%max” value is recorded as 93%.
Take `COc1ccc2c(c1)c(CC(=O)O)c(C)n2C(=O)c1ccc(Cl)cc1` [INDOMETHACIN]: the outcome with Mus musculus [14] was Active. In addition, the ED50 in the assay on Mus musculus [1] is listed as 0.49 mg. In addition, the inhibition entry in the assay with Mus musculus [1] was “Dose-dependent effect”. Further, the Activity in the assay on Mus musculus [15] was 57.7%; in the assay with Mus musculus [16] it was 64.2%. Further, the “inhibition (INH)” value with Mus musculus [17] is recorded as 14.6 - 99.3%. Besides, in the assay with Mus musculus [3], the “%max” value stood at 99.3%.
Take `C=CCNC(C)(COC(C)=O)P(=O)(OC)OC` (racemic): in the assay on Mus musculus [1], the ED50 was 0.59 to 1.68 mg and the inhibition entry was “Dose-dependent effect”. Besides, the “Ratio ED50” value in the assay with Mus musculus [2] is reported as 0.28. Further, in the assay on Mus musculus [3], the “%max” value was 74.3%.
`COP(=O)(OC)C(C)(COC(C)=O)NCc1ccccc1` (racemic): the Activity in the assay with Mus musculus [18] was 18.9 - 34.1%; in the assay on Mus musculus [19] it was “Tde”; in the assay on Mus musculus [20], 63%; with Mus musculus [22], “Tde”. Also, in the assay with Mus musculus [1], the ED50 fell in the range of 0.68 to 1.46 mg. Moreover, the inhibition result in the assay on Mus musculus [1] was “Dose-dependent effect”. Besides, the outcome in the assay on Mus musculus [21] was Active. Moreover, the “Ratio ED50” value with Mus musculus [2] is 0.33. The “%max” value with Mus musculus [3] was determined as 97.6%.
With `COP(=O)(OC)C(C)(CO)NCc1ccccc1` (racemic), in the assay on Mus musculus [1], the ED50 was in the range of 0.28 to 3.63 mg and the inhibition entry was “Dose-dependent effect”. Further, the “Ratio ED50” value in the assay on Mus musculus [2] is reported as 0.13. Moreover, the “%max” value in the assay on Mus musculus [3] was determined as 81.6%.
With `COP(=O)(OC)C(C)(O)COC(C)=O` (racemic), the ED50 in the assay on Mus musculus [1] fell in the range of 0.1 to 10.14 mg. In the assay with Mus musculus [2], the “Ratio ED50” value turned out to be 0.04. Besides, the “%max” value in the assay on Mus musculus [3] is 47.2%.
As to `COc1ccc(CCNC(C)(CO)P(=O)(OC)OC)cc1OC` (racemic), in the assay on Mus musculus [1], the ED50 was in the range of 0.99 to 1 mg and the inhibition result was “Dose-dependent effect”. In addition, the “Ratio ED50” value with Mus musculus [2] amounted to 0.48. For the same molecule, in the assay with Mus musculus [3], the “%max” value is 94.6%.
`COc1ccc(CCNC(C)(COC(C)=O)P(=O)(OC)OC)cc1OC` (racemic): the Activity in the assay on Mus musculus [18] was 18.9 - 34.1%; with Mus musculus [19] it was “Tde”; with Mus musculus [20], 62.6%; in the assay on Mus musculus [22], “Tde”. Besides, in the assay with Mus musculus [1], the ED50 lay within 0.77 to 1.29 mg. For the same molecule, in the assay on Mus musculus [1], the inhibition result is “Dose-dependent effect”. In the assay with Mus musculus [21], the outcome was Active. In addition, in the assay with Mus musculus [2], the “Ratio ED50” value came out at 0.37. In addition, in the assay on Mus musculus [3], the “%max” value is 97%.
Consider `COc1ccc(CNC(C)(COC(C)=O)P(=O)(OC)OC)cc1` (racemic), for which the ED50 in the assay on Mus musculus [1] is 0.58 to 1.73 mg. Moreover, the “Ratio ED50” value in the assay on Mus musculus [2] was 0.29. In the assay on Mus musculus [3], the “%max” value came out at 66.1%.
